In patent US7511041B2, “Fused azole-pyrimidine derivatives” (Bayer Pharmaceuticals Corporation, priority 2002, dated 2009):
Like-named read-outs stand apart in the source and are kept apart here.

Assays:
[1] = molecular target: T1, Recombinant human PI3Kγ (full length human PI3K p110γ) (Homo sapiens, UniProt P48736); test: Kinase assay of PI3Kγ (solid-phase lipid kinase assay); format: biochemical
T1 construct: full length human PI3K p110γ fused with a His6-tag at the C-terminus; His6 (C); purchased ALEXIS BIOCHEMICALS #201-055-C010; host or cells: S. frugiperda 9 insect cells

[2] = Table 1, isozyme not given, read-out: in vitro
[3] = in vitro PI3K-γ inhibitory activity, class symbols, read-out: in vitro PI3K-gamma
[4] = in vitro PI3K-γ inhibitory activity, class symbols A-D, read-out: in vitro PI3K-gamma

T1 sequence (P48736 whole entry, the tested form may be a part): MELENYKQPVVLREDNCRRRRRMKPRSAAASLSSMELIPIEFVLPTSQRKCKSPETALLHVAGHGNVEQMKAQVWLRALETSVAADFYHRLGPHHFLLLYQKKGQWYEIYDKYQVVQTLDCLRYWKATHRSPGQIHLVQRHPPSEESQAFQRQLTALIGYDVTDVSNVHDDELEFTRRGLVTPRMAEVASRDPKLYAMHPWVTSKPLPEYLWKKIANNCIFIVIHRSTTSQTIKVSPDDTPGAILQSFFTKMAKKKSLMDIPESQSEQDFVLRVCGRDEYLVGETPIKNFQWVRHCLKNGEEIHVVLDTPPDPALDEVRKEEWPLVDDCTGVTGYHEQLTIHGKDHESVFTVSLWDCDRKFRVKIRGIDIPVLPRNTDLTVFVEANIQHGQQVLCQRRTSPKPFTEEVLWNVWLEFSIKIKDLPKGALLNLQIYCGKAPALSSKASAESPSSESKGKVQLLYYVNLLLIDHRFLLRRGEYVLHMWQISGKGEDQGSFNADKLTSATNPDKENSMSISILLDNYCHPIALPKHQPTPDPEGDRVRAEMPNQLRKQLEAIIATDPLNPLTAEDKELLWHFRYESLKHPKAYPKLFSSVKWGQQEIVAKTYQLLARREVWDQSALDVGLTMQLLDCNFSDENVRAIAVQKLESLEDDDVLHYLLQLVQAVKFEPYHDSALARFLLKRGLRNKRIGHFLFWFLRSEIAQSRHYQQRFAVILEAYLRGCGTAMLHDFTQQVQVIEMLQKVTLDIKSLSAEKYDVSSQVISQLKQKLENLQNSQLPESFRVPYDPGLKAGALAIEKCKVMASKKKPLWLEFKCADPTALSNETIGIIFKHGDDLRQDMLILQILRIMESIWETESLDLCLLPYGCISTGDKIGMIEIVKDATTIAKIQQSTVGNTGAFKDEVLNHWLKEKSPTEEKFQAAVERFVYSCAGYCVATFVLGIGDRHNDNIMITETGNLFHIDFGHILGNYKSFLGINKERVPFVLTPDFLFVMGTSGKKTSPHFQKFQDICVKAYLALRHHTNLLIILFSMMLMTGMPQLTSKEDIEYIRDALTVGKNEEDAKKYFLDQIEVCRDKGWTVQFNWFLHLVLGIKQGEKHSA

Compound	IC50 [1, 2] [µM]	melting point	IC50 [1, 3] [µM]	IC50 [1, 4] [µM]	IC50 ([1]; activity class of IC50, read-out: In vitro PI3K-γ inhibitory activity) [µM]
COc1c(OCCO)ccc2c1N=C(/C=C(\O)c1cccnc1)N1CCN=C21 [Example 1-16]	< 0.1	264 to 265 °C			
Cl.O=C(NC1=Nc2ccccc2C2=NCCN12)c1cccc2[nH]ccc12 [Example 2-169]		295 °C (dec.)	0.1 to 0.5		
Cn1cccc1C(=O)NC1=Nc2ccccc2C2=NCCN12 [Example 2-296]		128 to 129 °C		0.5 to 2	
O=C(NC1=Nc2cc(N3CCOCC3)ccc2C2=NCCN12)c1ccc2[nH]cnc2c1 [Example 2-10]		250 °C (dec.)	0.1 to 0.5		
Cl.O=C(NC1=Nc2cc(C(F)(F)F)ccc2C2=NCCN12)c1cccnc1 [Example 2-34]		275 °C	< 0.1		
O=C(NC1=Nc2c(cccc2C(F)(F)F)C2=NCCN12)c1ccc2[nH]cnc2c1 [Example 2-112]		286 °C	< 0.1		
O=C(NC1=Nc2ccc(Cl)cc2C2=NCCN12)c1cccs1 [Example 2-355]		174 °C		0.5 to 2	
COC(=O)c1cccc(C(=O)NC2=Nc3ccccc3C3=NCCN23)c1 [Example 2-272]		224 to 226 °C		> 2	
O/C(=C\C1=Nc2cc(N3CCOCC3)ccc2C2=NCCN12)c1cncc(O)c1 [Example 1-98]	< 0.1	337 °C (dec.)			
O=C(NC1=Nc2ccccc2C2=NCCN12)c1csc([N+](=O)[O-])c1 [Example 2-305]		269 to 270 °C		> 2	
O=C(NC1=Nc2ccccc2C2=NCCN12)c1ccc(Cl)cc1 [Example 2-229]		226 to 228 °C		> 2	
COCOc1ccc2c(c1OC)N=C(/C=C(\O)c1cccnc1)N1CCN=C21 [Example 1-3, 2-[7-Methoxy-8-(methoxymethoxy)-2,3-dihydroimidazo[1,2-c]quinazolin-5-yl]-1-pyridin-3-ylethylenol]		215 to 216 °C			0.1 to 0.5
CC(=O)Nc1ccc(C(=O)NC2=Nc3ccccc3C3=NCCN23)cn1 [Example 2-151]		320 °C (dec.)	< 0.1		
O=C(NC1=Nc2ccc([N+](=O)[O-])cc2C2=NCCN12)c1cccnc1.O=C(O)C(F)(F)F [Example 2-362]		224 °C		0.5 to 2	
COc1cccc2c1N=C(/C=C(\O)c1cccnc1)N1CCN=C21 [Example 1-68]	< 0.1	275 °C			
Cc1c(C(=O)NC2=Nc3ccccc3C3=NCCN23)cnc(N)c1C.Cl [Example 2-161]		298 °C (dec.)	0.1 to 0.5		
COc1cc2c(cc1OC)C1=NCCN1C(/C=C(\O)c1ccccc1)=N2 [Example 1-185]	0.5 to 2	249 to 252 °C			
Cl.O/C(=C\C1=Nc2c(F)cccc2C2=NCCN12)c1cccnc1 [Example 1-70]	< 0.1	218 °C			
Cc1ccsc1C(=O)NC1=Nc2ccccc2C2=NCCN12.Cl [Example 2-182]		> 250 °C	0.1 to 0.5		
Cc1cc(Br)c2c(c1)C1=NCCN1C(/C=C(\O)c1cccnc1)=N2.Cl [Example 1-45]	0.1 to 0.5	> 290 °C			
O/C(=C\C1=Nc2ccccc2C2=NCCN12)c1cnccn1 [Example 1-141]	0.1 to 0.5	233 to 235 °C			

Compound	IC50 [1, 2] [µM]	melting point	IC50 [1, 3] [µM]	IC50 [1, 4] [µM]	IC50 ([1]; activity class of IC50, read-out: In vitro PI3K-γ inhibitory activity) [µM]
COc1c(OC(C)C)ccc2c1N=C(/C=C(\O)c1cccnc1)N1CCN=C21 [Example 1-14]	< 0.1	252 to 253 °C			
Nc1ccc(C(=O)NC2=Nc3ccccc3C3=NCCN23)cc1.O=C(O)C(F)(F)F [Example 2-163]		232 °C (dec.)	0.1 to 0.5		
O=C(NC1=Nc2ccccc2C2=NCCN12)c1ccc(Cl)nc1 [Example 2-291]		246 to 247 °C		0.1 to 0.5	
Cc1cc(Br)c2c(c1)C1=NCCN1C(NC(=O)c1cccnc1)=N2.Cl [Example 2-74]		220 °C	< 0.1		
COc1ccc(C(=O)NC2=Nc3ccccc3C3=NCCN23)c(OC)n1 [Example 2-286]		244 to 245 °C		> 2	
O=C(NC1=Nc2ccccc2C2=NCCN12)c1ccc(-n2cccn2)cc1 [Example 2-270]		209 to 211 °C		> 2	
O=C(NC1=Nc2cc(OCCO)ccc2C2=NCCN12)c1cccnc1 [Example 2-197]		210 to 215 °C (dec.)	0.1 to 0.5		
O=[N+]([O-])c1ccc2c(c1)C1=NCCN1C(/C=C(\O)c1cccnc1)=N2 [Example 1-192]	0.5 to 2	306 °C			
CC(C)CC(=O)NC1=Nc2ccccc2C2=NCCN12 [Example 2-329]		154 °C (dec.)		> 2	
CC(=O)Nc1ccc(/C(O)=C/C2=Nc3c(C)cccc3C3=NCCN23)cn1 [Example 1-77]	< 0.1	> 285 °C			
CCC(C(=O)c1ccccc1)C1=Nc2ccccc2C2=NCCN21 (stereo not drawn) [Example 1-193]	> 2	156 to 160 °C			
C[C@H]1CN2C(NC(=O)c3cccnc3)=Nc3ccccc3C2=N1.Cl [Example 2-363]		204 °C (dec.)		> 2	
Cc1ccc2c(c1)N=C(NC(=O)c1ccc3[nH]cnc3c1)N1CCN=C21 [Example 2-29]		190 °C	< 0.1		
O/C(=C\C1=Nc2ccccc2C2=NCCN12)c1csc2ccccc12 [Example 1-180]	> 2	220 to 225 °C			
Cl.O=C(NC1=Nc2cc(OCCCN3C(=O)c4ccccc4C3=O)ccc2C2=NCCN12)c1cccnc1 [Example 2-209]		247 °C		< 0.1	
Cc1cccc(C(=O)NC2=Nc3ccccc3C3=NCCN23)c1 [Example 2-216]		201 to 203 °C		> 2	
Cl.O/C(=C\C1=Nc2ccccc2C2=NCCN12)c1nccs1 [Example 1-155]	0.1 to 0.5	> 300 °C			
COc1c(C)ccc2c1N=C(/C=C(\O)c1ccc(NC(C)=O)nc1)N1CCN=C21.Cl [Example 1-33]	< 0.1	273 °C			
Cl.O=C(NC1=Nc2cc(Br)ccc2C2=NCCN12)c1cccnc1 [Example 2-42]		243 °C	< 0.1		
O/C(=C\C1=Nc2cc(CN3CCOCC3)ccc2C2=NCCN12)c1cccnc1 [Example 1-111]	0.1 to 0.5	204 °C			
O=C(NC1=Nc2ccc(Br)cc2C2=NCCN12)c1cccnc1 [Example 2-87]		228 °C	0.1 to 0.5		

Compound	IC50 [1, 2] [µM]	melting point	IC50 [1, 3] [µM]	IC50 [1, 4] [µM]	IC50 ([1]; activity class of IC50, read-out: In vitro PI3K-γ inhibitory activity) [µM]
Cl.O=C(O)COc1ccc2c(c1)N=C(NC(=O)c1cccnc1)N1CCN=C21 [Example 2-203]		231 °C (dec.)	0.1 to 0.5		
COc1c(OCCCC(=O)N2CCOCC2)ccc2c1N=C(/C=C(\O)c1cccnc1)N1CCN=C21.Cl [Example 1-198]	< 0.1	215 to 216 °C			
O=C(NC1=Nc2ccccc2C2=NCCN12)c1cnc2ccccc2c1 [Example 2-316]		263 to 264 °C		> 2	
COc1cccc2c1N=C(NC(=O)c1cnccc1C)N1CCN=C21.Cl [Example 2-120]		220 °C (dec.)	< 0.1		
Cl.O/C(=C\C1=Nc2cc(N3CCCC(O)C3)ccc2C2=NCCN12)c1ccc2[nH]cnc2c1 (stereo not drawn) [Example 1-210]	< 0.1	> 300 °C			
O=C(NC1=Nc2ccc(O)cc2C2=NCCN12)c1cccnc1 [Example 2-210]		> 300 °C		0.1 to 0.5	
Cc1ccc(C(=O)NC2=Nc3ccccc3C3=NCCN23)cc1 [Example 2-218]		185 to 186 °C		> 2	
CN(C)CCCOc1cccc2c1N=C(/C=C(\O)c1cccnc1)N1CCN=C21 [Example 1-87]	0.1 to 0.5	235 °C (dec.)			
CCn1nc(C)cc1C(=O)NC1=Nc2cc(N3CCOCC3)ccc2C2=NCCN12 [Example 2-18]		232 °C	0.1 to 0.5		
CC(=O)Nc1ccc(C(=O)NC2=Nc3c(Cl)cccc3C3=NCCN23)cn1.Cl [Example 2-105]		> 280 °C	< 0.1		
O=C(NC1=Nc2cc(Br)ccc2C2=NCCN12)c1ccc2[nH]cnc2c1 [Example 2-44]		262 °C	0.1 to 0.5		
COc1cccc2c1N=C(NC(=O)c1ccc(N)nc1)N1CCN=C21.Cl [Example 2-123]		296 °C	< 0.1		
Cl.O=C(NC1=Nc2cc(OCCCO)ccc2C2=NCCN12)c1cccnc1 [Example 2-200]		243 °C (dec.)	0.1 to 0.5		
COc1ccc2c(c1)C1=NCCN1C(/C=C(\O)c1cccnc1)=N2 [Example 1-126]	0.1 to 0.5	199 °C			
COc1cc2c(c(OC)c1C)N=C(/C=C(\O)c1cccnc1)N1CCN=C21 [Example 1-62]	< 0.1	278 °C			
O=C(NC1=Nc2c(F)cccc2C2=NCCN12)c1ccc2[nH]cnc2c1 [Example 2-101]		> 300 °C	< 0.1		
COc1cc2c(c(OC)c1C)N=C(NC(=O)c1ccc(NC(C)=O)nc1)N1CCN=C21 [Example 2-79]		> 310 °C	0.1 to 0.5		
Cc1cc(C)cc(C(=O)NC2=Nc3ccccc3C3=NCCN23)c1 [Example 2-219]		246 to 248 °C		> 2	
O=C(NC1=Nc2ccccc2C2=NCCN12)C1CCCCN1C(=O)OCc1ccccc1 (stereo not drawn) [Example 2-337]		119 to 120 °C		> 2	
O=[N+]([O-])c1cc(/C(O)=C/C2=Nc3ccccc3C3=NCCN23)cs1 [Example 1-178]	> 2	255 to 258 °C			
Cl.O=C(NC1=Nc2c(cccc2C(F)(F)F)C2=NCCN12)c1cccnc1 [Example 2-111]		263 °C	< 0.1		
